Experimental findings from patent US5091311A, “The production of KSB-1939 macrolides using STR eptomyces hygroscopicus” (Kumiai Chemical Industry Co., Ltd., priority 1987, dated 1992) are described below.

Values after ≈ are worked out from the molar mass of the structure shown.

The term mortality denotes the share of the test organisms that died. As usually defined, the LD50 is the dose expected to kill half of the subjects tested. A lower LD50 goes with a more toxic substance.

Data set [1] concerns microfilariae of Dirofilaria immitis. In words: microbe, parasite or virus in culture. Particulars: 240 h, read-out: LD50.
Data set [2] relates to Brown Rice Planthopper. Put plainly: Test 3 insecticidal test against brown rice planthopper. In kind it is in vivo, Nilaparvata lugens Stal. The note with it: 120 h, larvae, 5 days, 25° C. How it is done:
Test 3 (Insecticidal Test against Brown Rice Planthopper) Wettable powders which had been prepared following the procedures of Preparation Examples 4-6 respectively were diluted with water to a predetermined concentration. Rice stems and leaves were dipped in the resultant solutions and then dried in the air. They were placed in test tubes. Ten brown rice planthopper larvae were placed in each test tube. The test tubes were plugged with absorbent cotton and the larvae were reared for 5 days in a constant-temperature chamber of 25° C. The test was conducted dually. The numbers of larvae were counted after the rearing, whereby mortality values of brown rice planthopper were calculated.

Data set [3] is described as follows: Distinction of basic, acidic or neutral. It counts as physicochemical.
Data set [4] relates to Diamondback Moth. In words: Test 4 insecticidal test against diamondback moth. It counts as in vivo. The note with it: Plutella xylostella, 120 h, 3rd-instar larvae, 5 days, 25° C. How it is done:
Test 4 (Insecticidal Test against Diamondback Moth)
Wettable powders which had been prepared following the procedures of Preparation Examples 4-6 respectively were diluted with water to a predetermined concentration. Cabbage leaves were dipped in the resultant solutions and then dried in the air. They were placed in polyethylene-madecups having a diameter of 55 mm. Ten 3rd-instar larvae of diamondback moth were placed in each cup. The larvae were reared for 5 days in a constant-temperature chamber of 25° C. The test was conducted dually. The numbers of dead larvae were counted after the rearing, whereby mortality values of diamondback moth were calculated.

Data set [5] can be described thus: Solubility. In kind it is physicochemical. Particulars: for Solubility in organic solvents: methanol, acetone, ethyl acetate, chloroform and hexane.
Data set [6] relates to Twospotted Spider Mite. Put plainly: Test 1 miticidal test against adult female twospotted spider mite. In kind it is in vivo, Teranychus urticae Koch. Particulars: Tetranychus urticae, 48 h, 2 days after treatment, read-out: Corrected mite mortality. An excerpt:
Test 1 (Miticidal Test against Adult Female Twospotted Spider Mite)
(§1) Each of polyethylene-made cups having a diameter of 55 mm and filled with water was covered with a lid through which a hole having a diameter of 10 mm was formed centrally. Absorbent cotton was suspended through the hole of the lid so as to absorb water. A sheet of filter paper was placed on the lid. Two bean leaf disks were place don the filter paper so that the disks were always supplied with water. Using a writing brush, adult female two spotted spider mites were inoculated at a rate of 10 mites per leaf disk. Twenty-four hours later, abnormal mites were removed, and wettable powders which had been prepared in accordance with the procedures of Preparation Examples 4-6 respectively were separately diluted to a predetermined concentration and sprayed to apply 2 mg/cm^2 of the respective agrochemical solutions. The test was conducted dually. Two days after the treatment with the agrochmical solutions, it was determined through a stereoscopic microscope whether the mites were alive or dead. The corrected mite mortality was calculated in accordance with the following equation. [formula]

Data set [7] can be described thus: Test 11 acute toxicity test (oral), mouse. The arrangement: species or system mouse (B6 C3 F1). The note with it: in vivo, male. The source says: (§2) Test 11 (Acute Toxicity Test)
(§3) The acute toxicity (oral) of one of the compounds of this invention was investigated using rats (male and female, F344, 7 weeks old) and mice (male and female, B6 C3 F1, 7 weeks old).

Data set [8] has as its system Twospotted Spider Mite. Put plainly: Test 2 LC50 against twospotted spider mite. It counts as in vivo, Teranychus urticae Koch. Particulars: 48 h; for LC50: Tetranychus urticae, following procedure of Test 1.
From the text: as §1
(§4) Following the procedure of Test 1, tests were conducted with respect to Kanzawa spider mite and twospotted spider mite so that their LC50 values were determined. Milbemycin was used as a control.

Data set [9] concerns Kanzawa spider mite. In words: Test 2 LC50 against Kanzawa spider mite. In kind it is in vivo, Tetranychus kanzawai Kishida. Particulars: 48 h; for LC50: Tetranychus kanzawai, following procedure of Test 1.
From the text: as §1, §4

Data set [10] relates to Asiatic Rice Borer. Put plainly: Test 5 insecticidal test against Asiatic rice borer. The note with it: Chilo suppressalis, 120 h, 3rd-instar larvae, 5 days, 25° C. In kind it is in vivo, Chilo suppressalis Walker. As to the method: Test 5 (Insecticidal Test against Asiatic Rice Borer) Wettable powders which had been prepared following the procedures of Preparation Examples 4-6 respectively were diluted with water to a predetermined concentration. Sprouted unhulled rice seeds were dipped in the resultant solutions and then dried in the air. They were placed separately in polyethylene-made cups having a diameter of 55 mm. Ten 3rd-instar larvae of asiatic rice borer were placed in each cup. The larvae were reared for 5 days in a constant-temperature chamber of 25° C. The test was conducted dually. The numbers of dead larvae were counted after the rearing, whereby mortality values of asiatic rice borer were calculated.

The subject of data set [11] is Haemonchus concurtus. Put plainly: Test 10 test against sheep nematode. In kind it is in vivo, Haemonchus concurtus (in sheep). Particulars: oral drench into rumen, once. As to the method:
Test 10 (Test against Sheep Nematode) A test was conducted using sheep which had been infected with Haemonchus concurtus. Namely, KSB-1939H4 of this invention was formulated into oral drenches. Four sheep which had been infected artificially with Haemonchus concurtus were administered with the compound by injecting the oral drenches into their rumens respectively. They were treated only once by a single dosage of 0.5 mg/kg-body weight or 1.0 mg/kg-body weight. Evaluation was conducted by comparing the number of eggs contained in feces excreted from each sheep before the treatment with that of eggs contained in feces excreted from the sheep after the treatment.

Data set [12] relates to Toxocara cati. In words: Test 9 test against cat nematode. It counts as in vivo, Toxocara cati (in cats). The note with it: cats. How it is done:
Test 9 (Test against Cat Nematode) A test was conducted using cats which had been infected naturally with Toxocara cati. Namely, 4 hybrid cats infected with the nematode were administered with KSB-1939H2 of this invention at a dosage of 0.05 mg/kg-body weight in the case of subcutaneous administration or at a dosage of 0.1 mg/kg-body weight in the case of oral administration. Evaluation was conducted by comparing the number of eggs contained in feces excreted from each cat before the treatment with that of eggs contained in feces excreted from the cat after the treatment.

Data set [13] deals with Ancylostoma caninum. Put plainly: Test 8 test against dog nematodes (Ancylostoma caninum). The note with it: dogs, once. In kind it is in vivo, Ancylostoma caninum (in dogs). How it is done:
(§5) Test 8 (Test against Dog Nematodes) A test was conducted using dogs which had been infected naturally with Ancylostoma caninum or Toxocara canis. Namely, using 8 hybrid dogs of 2 months old, KSB-1939H2 according to this invention was administered subcutaneously at a dosage of 0.1 mg/kg-body weight or orally at a dosage of 0.5 mg/kg-body weight. Administration was effected only once. Evaluation was conducted by comparing the number of eggs contained in feces excreted from each dog before the treatment with that of eggs contained in feces excreted from the dog after the treatment.

Data set [14] deals with Toxocara canis. Put plainly: Test 8 test against dog nematodes (Toxocara canis). The note with it: dogs, once. It counts as in vivo, Toxocara canis (in dogs). How it is done: as §5
Data set [15] is described as follows: Test 11 acute toxicity test (oral), rat. Also noted: species or system rat (F344). The note with it: in vivo, male.
From the text: as §2, §3

For the compound `CC1=C[C@H]2C(=O)O[C@H]3C[C@@H](C/C=C(\C)C[C@@H](C)/C=C/C=C4\CO[C@H]([C@@H]1O)[C@@]42O)O[C@@]1(CC[C@H](C)[C@@H](C(C)C)O1)C3` [Milbemycin D, reference compound], the LC50 in [1] amounted to 7.5 µg/mL (≈ 13.5 µM).

Consider `CC1=CCC2CC(CC3(CCC(C)C(C)O3)O2)OC(=O)C2C=C(COC(=O)CC(C)C)C(O)C3OCC(=CC=CC(C)C1)C23O` (stereo not shown) [KSB-1939H3], for which, in data set [2], the mortality at 5 ppm was 65% and the mortality at 25 ppm was determined as 100%. The “Distinction of basic, acidic or neutral” value in [3] is recorded as “Neutral”. In data set [4], this compound returned a mortality at 25 ppm of 100%. In addition, in data set [5], the “Solubility in organic solvents” value is reported as “Soluble” and the Solubility in water entry was “Insoluble”. In addition, in data set [6], the mortality at 0.2 ppm turned out to be 100%, the mortality at 1 ppm was determined as 100% and the mortality at 5 ppm was determined as 100%. This compound also gave an LD50 in [7] greater than 5000 mg/kg. Besides, the LC50 in data set [1] turned out to be 1.5 µg/mL (≈ 2.39 µM).

With Milbemycin [reference compound], the “LC50 Twospotted spider mite” value in [8] (twospotted spider mite, in vivo) stood at 0.339 ppm. The “LC50 Kanzawa spider mite” value in [9] (kanzawa spider mite, in vivo) is listed as 0.485 ppm.

`CCCC(=O)OCC1=CC2C(=O)OC3CC(CC=C(C)CC(C)C=CC=C4COC(C1O)C42O)OC1(CCC(C)C(C)O1)C3` (stereo not drawn) [KSB-1939L3β]: the “Distinction of basic, acidic or neutral” value in data set [3] is “Neutral”. In addition, in data set [5], the “Solubility in organic solvents” value was “Soluble” and the Solubility in water entry is “Insoluble”.

`CC1=CCC2CC(CC3(CCC(C)C(C)O3)O2)OC(=O)C2C=C(COC(=O)CCC(C)C)C(O)C3OCC(=CC=CC(C)C1)C23O` (stereo not shown) [KSB-1939H5] yielded a mortality at 25 ppm in data set [2] of 95%. Besides, the “Distinction of basic, acidic or neutral” value in data set [3] is on record as “Neutral”. Moreover, the mortality at 25 ppm in data set [4] is 100%. For the same compound, in [5], the “Solubility in organic solvents” value is “Soluble” and the Solubility in water entry is given as “Insoluble”. Besides, in data set [6], the mortality at 1 ppm came to 100% and the mortality at 5 ppm was 100%. Moreover, in data set [10], the mortality at 0.2 ppm amounted to 90% and the mortality at 1 ppm was found to be 100%. For the same compound, the LC50 in [1] was 1.6 µg/mL (≈ 2.49 µM).

For `CC1=CCC2CC(CC3(CCC(C)C(C)O3)O2)OC(=O)C2C=C(COC(=O)C(C)C)C(O)C3OCC(=CC=CC(C)C1)C23O` (stereo not drawn) [KSB-1939L3α], the “Distinction of basic, acidic or neutral” value in data set [3] is “Neutral”. In data set [5], the “Solubility in organic solvents” value was “Soluble” and the Solubility in water result is listed as “Insoluble”.

For the compound `CCC(C)=CC(=O)OCC1=CC2C(=O)OC3CC(CC=C(C)CC(C)C=CC=C4COC(C1O)C42O)OC1(CCC(C)C(C)O1)C3` (stereo not shown) [KSB-1939H4], in [2], the mortality at 1 ppm amounted to 65% and the mortality at 5 ppm turned out to be 100%. For the same compound, the “Distinction of basic, acidic or neutral” value in [3] is given as “Neutral”. Besides, the “activities (eggs in feces before and after treatment)” value (“activities” below) in data set [11] (0.5 mg/kg) was 80-90%. Moreover, the “activities” value in [11] (1.0 mg/kg) was 100%. In addition, in data set [5], the “Solubility in organic solvents” value is given as “Soluble” and the Solubility in water entry is reported as “Insoluble”. In data set [6], the mortality at 0.04 ppm came to 94.2%, the mortality at 0.2 ppm was 100% and the mortality at 1 ppm is 100%. Also, in data set [10], the mortality at 0.2 ppm was 90% and the mortality at 1 ppm amounted to 100%. Further, the LC50 in data set [1] came out at 3.3 µg/mL (≈ 5.15 µM).

Turning to `CCC1OC2(CCC1C)CC1CC(CC=C(C)CC(C)C=CC=C3COC4C(O)C(COC(=O)C=C(C)C)=CC(C(=O)O1)C34O)O2` (stereo not shown) [KSB-1939S5], in data set [2], the mortality at 1 ppm turned out to be 85% and the mortality at 5 ppm worked out at 100%. Moreover, the “Distinction of basic, acidic or neutral” value in data set [3] was “Neutral”. Besides, in data set [5], the “Solubility in organic solvents” value is “Soluble” and the Solubility in water result was “Insoluble”. Besides, in data set [6], the mortality at 0.04 ppm worked out at 45.7%, the mortality at 0.2 ppm turned out to be 100% and the mortality at 1 ppm worked out at 100%. The same compound yielded an LD50 in [7] greater than 5000 mg/kg. In addition, the LC50 in data set [8] worked out at 0.0339 µg/mL (≈ 0.0529 µM). The compound also had an LC50 in [9] of 0.0643 µg/mL (≈ 0.1 µM). Also, the LC50 in data set [1] worked out at 3.5 µg/mL (≈ 5.46 µM).

Consider `CC(C)=CC(=O)OCC1=CC2C(=O)OC3CC(CC=C(C)CC(C)C=CC=C4COC(C1O)C42O)OC1(CCC(C)C(C)O1)C3` (stereo not shown) [KSB-1939H2], for which the mortality at 1 ppm was 95% in data set [2], 100% in data set [6] and 100% in data set [10]. In data set [2], this compound registered a mortality at 5 ppm of 100%. For the same compound, in data set [3], the “Distinction of basic, acidic or neutral” value is “Neutral”. Besides, the “Solubility in organic solvents” value in data set [5] is recorded as “Soluble”. In addition, the Solubility in water result in [5] is recorded as “Insoluble”. For the same compound, the mortality at 0.004 ppm in data set [6] (0.004 ppm) came out at 70.1%. In addition, the mortality at 0.2 ppm in data set [6] was 100%; in data set [10], 90%. The “activities” value in data set [12] (oral 0.1 mg/kg), in data set [12] (subcutaneous 0.05 mg/kg), in data set [13] (oral 0.5 mg/kg), in data set [13] (subcutaneous 0.1 mg/kg), in [14] (oral 0.5 mg/kg) and in [14] (subcutaneous 0.1 mg/kg) was 100% throughout. The LD50 in [7] and in data set [15] was greater than 5000 mg/kg throughout. Besides, the LC50 in data set [8] was found to be 0.0249 µg/mL (≈ 0.0397 µM); in [9], 0.0465 µg/mL (≈ 0.0742 µM); in data set [1], 3.4 µg/mL (≈ 5.42 µM).
